≈ marks a conversion by molar mass, not a printed value. Where two headings read alike, the source gives them in different places.
How the values were obtained:
E. cloacae 13047 = experiment: Minimal inhibitory concentration, E. cloacae 13047; format: cell-based; conditions: 16 hour minimal inhibitory concentration at 37° C., read-out: MIC (μM) E. cloacae 13047
Procedure, shortened: (§1)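 Broth microdilution, 2-fold series from DMSO stock; inoculum = saturated overnight culture (LB; TSA for S. aureus) diluted 1:100 then 1:100. 37 °C, 16 h, no shaking. OD600 read-out; MIC = lowest conc. inhibiting growth (µM).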

WT E. coli = experiment: Minimal inhibitory concentration in wild-type E. coli; format: cell-based, Escherichia coli; conditions: wild-type E. coli, 37° C., 16 hours, read-out: MIC (μM) in WT E. coli
Method: General Procedure for Determination of Minimal Inhibitory Concentrations
Overnight cultures (5 mL) of bacterial strains were grown in LB media or TSA media (for S. aureus) at 37° C. and with shaking at 220 rpm until saturation. The overnight culture was diluted serially 1:100 (50 μL in 5 mL sterile media) and then 1:100 (250 μL in 25 mL sterile media). The 25 mL of diluted culture was then dispensed to a sterile 96 well plate (Corning #3370). 198 μL of culture were dispensed into row A and 100 μL of this culture were dispensed into rows B-H. Aminocoumarin compound (DMSO stock) were added to the first row and then the row was mixed by pipetting. 100 μL of culture from row A were transferred to row B and the serial dilution continued until the final 100 μL from row H were discarded. The plate was incubated without shaking in a 37° C. for 16 hours and then read by visible light spectrophotometer (Molecular Devices) at 600 nm. The minimal inhibitory concentration (MIC) was determined as the lowest concentration of compound concentration that inhibited the growth of bacteria.

A. baumannii 19606 = experiment: Minimal inhibitory concentration, A. baumannii 19606; format: cell-based; conditions: 16 hour minimal inhibitory concentration at 37° C., read-out: MIC (μM) A. baumannii 19606
Procedure, shortened: as §1

E. coli 25922 = experiment: Minimal inhibitory concentration, E. coli 25922; format: cell-based; conditions: 16 hour minimal inhibitory concentration at 37° C., read-out: MIC (μM) E. coli 25922
Procedure, shortened: as §1

S. aureus MW2 = experiment: Minimal inhibitory concentration, S. aureus MW2; format: cell-based; conditions: 16 hour minimal inhibitory concentration at 37° C., read-out: MIC (μM) S. aureus MW2 (MRSA)
Procedure, shortened: as §1

S. aureus RN4220 = experiment: Minimal inhibitory concentration, S. aureus RN4220; format: cell-based; conditions: 16 hour minimal inhibitory concentration at 37° C., read-out: MIC (μM) S. aureus RN4220
Procedure, shortened: as §1

E. coli MC4100 = experiment: Minimal inhibitory concentration, E. coli MC4100; format: cell-based; conditions: 16 hour minimal inhibitory concentration at 37° C., read-out: MIC (μM) E. coli MC4100 ara+
Procedure, shortened: as §1

K. pneumoniae 700721 = experiment: Minimal inhibitory concentration, K. pneumoniae 700721; format: cell-based; conditions: 16 hour minimal inhibitory concentration at 37° C., read-out: MIC (μM) K. pneumoniae 700721
Procedure, shortened: as §1

[1] = Acinetobacter baumannii, 19606, 16 h
[2] = Staphylococcus aureus, MRSA, 16 h
[3] = Staphylococcus aureus, RN4220, 16 h

Row | SMILES | MIC (E. cloacae 13047; Enterobacter cloacae, 13047) [µM] | MIC (WT E. coli; Escherichia coli) [µM] | MIC (A. baumannii 19606; [1]) [µM] | MIC (E. coli 25922; Escherichia coli, 25922, 16 h) [µM] | MIC (S. aureus MW2; [2]) [µM] | MIC (S. aureus RN4220; [3]) [µM] | MIC (E. coli MC4100; Escherichia coli, MC4100, 16 h) [µM] | MIC (K. pneumoniae 700721; Klebsiella pneumoniae, 700721) [µM] | MIC (E. cloacae 13047) [µM] | MIC (WT E. coli) [µM] | MIC (A. baumannii 19606) [µM] | MIC (E. coli 25922) [µM] | MIC (S. aureus MW2) [µM] | MIC (S. aureus RN4220) [µM] | MIC (E. coli MC4100) [µM] | MIC (K. pneumoniae 700721) [µM]
1 | CO[C@@H]1[C@@H](OC(N)=O)[C@@H](O)[C@H](Oc2ccc3c(O)c(NC(=O)c4cccc(S(F)(F)(F)(F)F)c4)c(=O)oc3c2C)OC1(C)C [Compound 26] | > 100 | > 300 | > 50 | > 200 | > 100 | > 100 | > 200 | > 100 | – | – | – | – | – | – | – | –
2 | CO[C@@H]1[C@@H](OC(N)=O)[C@@H](O)[C@H](Oc2ccc3c(O)c(NC(=O)/C=C/c4ccccc4)c(=O)oc3c2C)OC1(C)C [Compound 27] | > 100 | > 300 | > 50 | > 200 | 23 (≈ 12.8 µg/mL) | 45 (≈ 25 µg/mL) | > 200 | > 100 | – | – | – | – | – | – | – | –
3 | CO[C@@H]1[C@@H](OC(N)=O)[C@@H](O)[C@H](Oc2ccc3c(O)c(NC(=O)c4cccc(-c5ccc(F)cc5)c4)c(=O)oc3c2C)OC1(C)C [Compound 28] | 161 (≈ 100 µg/mL) | 26 (≈ 16.2 µg/mL) | > 50 | 40 (≈ 24.9 µg/mL) | 5 (≈ 3.11 µg/mL) | 5 (≈ 3.11 µg/mL) | 26 (≈ 16.2 µg/mL) | 80 (≈ 49.8 µg/mL) | – | – | – | – | – | – | – | –
4 | CO[C@@H]1[C@@H](OC(N)=O)[C@@H](O)[C@H](Oc2ccc3c(O)c(NC(=O)c4cccc(-c5cccnc5)c4)c(=O)oc3c2C)OC1(C)C [Compound 29] | > 100 | > 300 | > 50 | > 200 | 83 (≈ 50.3 µg/mL) | 83 (≈ 50.3 µg/mL) | > 200 | > 100 | – | – | – | – | – | – | – | –
5 | CO[C@@H]1[C@@H](OC(N)=O)[C@@H](O)[C@H](Oc2ccc3c(O)c(NC(=O)c4ccc(O)cc4)c(=O)oc3c2C)OC1(C)C [Compound 30] | > 100 | > 300 | > 50 | > 200 | 46 (≈ 25 µg/mL) | 46 (≈ 25 µg/mL) | > 200 | > 100 | – | – | – | – | – | – | – | –
6 | CO[C@@H]1[C@@H](OC(N)=O)[C@@H](O)[C@H](Oc2ccc3c(O)c(NC(=O)c4cccc(-c5ccccn5)c4)c(=O)oc3c2C)OC1(C)C [Compound 31] | > 100 | > 300 | > 50 | > 200 | 41 (≈ 24.8 µg/mL) | 41 (≈ 24.8 µg/mL) | > 200 | > 100 | – | – | – | – | – | – | – | –
7 | CO[C@@H]1[C@@H](OC(N)=O)[C@@H](O)[C@H](Oc2ccc3c(O)c(NC(=O)c4cccc(-c5ccncc5)c4)c(=O)oc3c2C)OC1(C)C [Compound 32] | > 100 | > 300 | > 50 | > 200 | 41 (≈ 24.8 µg/mL) | 83 (≈ 50.3 µg/mL) | > 200 | > 100 | – | – | – | – | – | – | – | –
8 | CO[C@@H]1[C@@H](OC(N)=O)[C@@H](O)[C@H](Oc2ccc3c(O)c(NC(=O)c4cccc(-c5ccc(Cl)cc5)c4)c(=O)oc3c2C)OC1(C)C [Compound 33] | > 100 | 18 (≈ 11.5 µg/mL) | 39 (≈ 24.9 µg/mL) | 20 (≈ 12.8 µg/mL) | 0.98 (≈ 0.626 µg/mL) | 1.96 (≈ 1.25 µg/mL) | 18 (≈ 11.5 µg/mL) | > 100 | – | – | – | – | – | – | – | –
9 | CO[C@@H]1[C@@H](OC(N)=O)[C@@H](O)[C@H](Oc2ccc3c(O)c(NC(=O)c4cccc(-c5ccc(I)cc5)c4)c(=O)oc3c2C)OC1(C)C [Compound 34] | > 100 | 59 (≈ 43.1 µg/mL) | 9 (≈ 6.57 µg/mL) | 68 (≈ 49.7 µg/mL) | 0.43 (≈ 0.314 µg/mL) | 0.43 (≈ 0.314 µg/mL) | 59 (≈ 43.1 µg/mL) | > 100 | – | – | – | – | – | – | – | –
10 | CO[C@@H]1[C@@H](OC(N)=O)[C@@H](O)[C@H](Oc2ccc3c(O)c(NC(=O)c4cccc(Oc5ccccc5)c4)c(=O)oc3c2C)OC1(C)C [Compound 35] | > 100 | 8 (≈ 4.96 µg/mL) | > 50 | 10 (≈ 6.21 µg/mL) | 20 (≈ 12.4 µg/mL) | 40 (≈ 24.8 µg/mL) | 8 (≈ 4.96 µg/mL) | > 100 | – | – | – | – | – | – | – | –
11 | CO[C@@H]1[C@@H](OC(N)=O)[C@@H](O)[C@H](Oc2ccc3c(O)c(NC(=O)c4cccc(-c5ccccc5F)c4)c(=O)oc3c2C)OC1(C)C [Compound 37] | > 100 | 59 (≈ 36.7 µg/mL) | > 50 | 80 (≈ 49.8 µg/mL) | 10 (≈ 6.23 µg/mL) | 10 (≈ 6.23 µg/mL) | 59 (≈ 36.7 µg/mL) | > 100 | – | – | – | – | – | – | – | –
12 | CO[C@@H]1[C@@H](OC(N)=O)[C@@H](O)[C@H](Oc2ccc3c(O)c(NC(=O)c4cccc(-c5cccc(F)c5)c4)c(=O)oc3c2C)OC1(C)C [Compound 38] | > 100 | 26 (≈ 16.2 µg/mL) | > 50 | 40 (≈ 24.9 µg/mL) | 10 (≈ 6.23 µg/mL) | 5 (≈ 3.11 µg/mL) | 26 (≈ 16.2 µg/mL) | > 100 | – | – | – | – | – | – | – | –
13 | CO[C@@H]1[C@@H](OC(N)=O)[C@@H](O)[C@H](Oc2ccc3c(O)c(NC(=O)c4cccc(-c5ccc6ccccc6c5)c4)c(=O)oc3c2C)OC1(C)C [Compound 39] | – | – | – | – | – | – | – | – | >100 | >300 | 5 (≈ 3.27 µg/mL) | 153 (≈ 100 µg/mL) | 0.1 (≈ 0.0655 µg/mL) | 0.19 (≈ 0.124 µg/mL) | >200 | >100
14 | CO[C@@H]1[C@@H](OC(N)=O)[C@@H](O)[C@H](Oc2ccc3c(O)c(NC(=O)c4ccccc4-c4ccccc4)c(=O)oc3c2C)OC1(C)C [Compound 40] | > 100 | > 300 | > 50 | > 200 | 41 (≈ 24.8 µg/mL) | 41 (≈ 24.8 µg/mL) | > 100 | > 100 | – | – | – | – | – | – | – | –
15 | CO[C@@H]1[C@@H](OC(N)=O)[C@@H](O)[C@H](Oc2ccc3c(O)c(NC(=O)c4ccc(C5CCCCC5)cc4)c(=O)oc3c2C)OC1(C)C [Compound 41] | > 100 | > 300 | > 50 | > 200 | 20 (≈ 12.2 µg/mL) | 20 (≈ 12.2 µg/mL) | > 200 | > 100 | – | – | – | – | – | – | – | –
